Reference: patent US10711004B2 (Genentech, Inc., priority 2018, dated 2020)
Like-named read-outs stand apart in the source and are kept apart here.

Molecular target: human TRPA1 channel (Homo sapiens (Human), UniProt O75762)
Assay: hTRPA1 CHO Ca2+ FLIPR Tetra assay, block of cinnamaldehyde induced calcium influx
Format: cell-based
Settings: for IC50: CHO cells expressing TRPA1, Hill coefficient fixed to 1.5; for TRPA1 IC50 compared with 3-azabicyclo[3.1.0]hexene linker and cyclobutylene linker analogues: bicyclo[3.1.0]hexene linker compounds versus same-substituent analogues (compounds 16, 191; 26, 1)
Procedure: CHO cells expressing TRPA1 were plated into 384-well plates, incubated overnight at 37° C., and loaded with BD calcium indicator dye for 1 hr at 37° C. followed by 15 minutes at room temperature. The assay buffer was Hank's Balanced Salt Solution (HBSS) containing 20 mM HEPES (pH readjusted to 7.4) along with 0.02% BSA.
Following dye load and plate cool down, compounds were added to the cells using FLIPR Tetra. Plates were then incubated with compounds for 10 minutes or 90 minutes at room temperature prior to adding agonist. Following this incubation, about an EC50 concentration of cinnamaldehyde (75) was added to active the channels and block of cinnamaldehyde induced calcium influx was measured.
Fixing the Hill coefficient will generally reduce variability of the IC50 determination. The IC50 results were individually examined to make sure the MIN and MAX points were set correctly prior to validation of the results.

[1] = read-out: hTRPA1 IC50 (10 min), compounds incubated 10 minutes at room temperature before cinnamaldehyde agonist
[2] = read-out: hTRPA1 IC50 (90 min), compounds incubated 90 minutes at room temperature before cinnamaldehyde agonist

Sequence of human TRPA1 channel (O75762 whole entry): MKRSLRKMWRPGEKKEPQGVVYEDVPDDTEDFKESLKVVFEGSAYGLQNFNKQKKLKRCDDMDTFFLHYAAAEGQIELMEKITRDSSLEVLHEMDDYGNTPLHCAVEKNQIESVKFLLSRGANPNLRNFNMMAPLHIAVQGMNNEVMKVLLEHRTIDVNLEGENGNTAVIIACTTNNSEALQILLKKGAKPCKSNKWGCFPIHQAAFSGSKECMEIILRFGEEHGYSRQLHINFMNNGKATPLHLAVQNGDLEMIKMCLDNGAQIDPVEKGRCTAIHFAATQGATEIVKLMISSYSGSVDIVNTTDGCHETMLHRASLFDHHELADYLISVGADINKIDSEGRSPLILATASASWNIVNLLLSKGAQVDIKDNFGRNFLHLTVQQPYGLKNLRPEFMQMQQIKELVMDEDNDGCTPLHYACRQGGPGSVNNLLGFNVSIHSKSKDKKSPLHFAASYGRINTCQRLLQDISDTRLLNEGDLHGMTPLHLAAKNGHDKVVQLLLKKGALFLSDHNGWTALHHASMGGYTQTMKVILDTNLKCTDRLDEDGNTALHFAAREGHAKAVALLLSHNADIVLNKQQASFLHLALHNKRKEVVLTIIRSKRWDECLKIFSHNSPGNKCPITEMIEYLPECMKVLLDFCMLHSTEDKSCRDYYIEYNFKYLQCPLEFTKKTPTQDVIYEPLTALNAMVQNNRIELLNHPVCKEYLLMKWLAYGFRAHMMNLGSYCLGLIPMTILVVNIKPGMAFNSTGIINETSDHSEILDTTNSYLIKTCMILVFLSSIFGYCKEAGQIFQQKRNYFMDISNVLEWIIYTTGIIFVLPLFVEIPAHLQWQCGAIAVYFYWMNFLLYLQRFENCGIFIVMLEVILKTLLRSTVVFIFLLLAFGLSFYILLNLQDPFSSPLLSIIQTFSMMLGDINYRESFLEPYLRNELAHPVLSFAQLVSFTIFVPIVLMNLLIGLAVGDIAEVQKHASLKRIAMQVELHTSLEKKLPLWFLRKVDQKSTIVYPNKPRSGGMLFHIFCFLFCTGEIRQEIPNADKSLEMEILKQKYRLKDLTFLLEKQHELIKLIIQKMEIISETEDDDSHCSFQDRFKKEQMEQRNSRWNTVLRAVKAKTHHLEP

Row | Structure (SMILES) | IC50 [1] | IC50 [2] | TRPA1 IC50 compared with 3-azabicyclo[3.1.0]hexene linker and cyclobutylene linker analogues
1 | Cc1cnn2ncn(Cc3nc([C@H]4[C@@H]5CN(c6ccccc6)C[C@@H]54)no3)c(=O)c12 [Example Compound 95, 5-methyl-3-((3-((1R,5S,6r)-3-phenyl-3-azabicyclo[3.1.0]hexan-6-yl)-1,2,4-oxadiazol-5-yl)methyl)pyrazolo[5,1f][1,2,4]triazin-4(3H)-one] | 8.11 nM | 3.5 nM | 
2 | O=c1c2cccnc2cnn1Cc1nc([C@H]2[C@@H]3CN(c4cccc(F)c4)C[C@@H]32)no1 [Example Compound 96, 6-((3-((1R,5S,6r)-3-(3-fluorophenyl)-3-azabicyclo[3.1.0]hexan-6-yl)-1,2,4-oxadiazol-5-yl)methyl)pyrido[2,3-d]pyridazin-5(6H)-one] | 8.39 nM | 5.1 nM | 
3 | Cn1cnc2ncn(Cc3nc([C@H]4[C@@H]5CN(c6ccccc6F)C[C@@H]54)no3)c(=O)c21 [Example Compound 97, 1-((3-((1R,5S,6r)-3-(2-fluorophenyl)-3-azabicyclo[3.1.0]hexan-6-yl)-1,2,4-oxadiazol-5-yl)methyl)-7-methyl-1,7-dihydro-6H-purin-6-one] | 48.1 nM | 19 nM | 
4 | Cn1cnc2ncn(Cc3nc([C@H]4[C@@H]5CN(c6ccccc6C#N)C[C@@H]54)no3)c(=O)c21 [Example Compound 98, 2-((1R,5S,6r)-6-(5-((7-methyl-6-oxo-6,7-dihydro-1H-purin-1-yl)methyl)-1,2,4-oxadiazol-3-yl)-3-azabicyclo[3.1.0]hexan-3-yl)benzonitrile] | 157 nM | 100 nM | 
5 | Cn1cnc2ncn(Cc3nc([C@H]4[C@@H]5CN(c6cc(F)ccc6F)C[C@@H]54)no3)c(=O)c21 [Example Compound 99, 1-((3-((1R,5S,6r)-3-(2,5-difluorophenyl)-3-azabicyclo[3.1.0]hexan-6-yl)-1,2,4-oxadiazol-5-yl)methyl)-7-methyl-1,7-dihydro-6H-purin-6-one] | 15.1 nM | 6.3 nM | 
6 | Cn1cnc2ncn(Cc3nc([C@H]4[C@@H]5CN(c6cccc(F)c6F)C[C@@H]54)no3)c(=O)c21 [Example Compound 100, 1-((3-((1R,5S,6r)-3-(2,3-difluorophenyl)-3-azabicyclo[3.1.0]hexan-6-yl)-1,2,4-oxadiazol-5-yl)methyl)-7-methyl-1,7-dihydro-6H-purin-6-one] | 12.8 nM | 2.5 nM | 
7 | Cn1cnc2ncn(Cc3nc([C@H]4C[C@H](C(=O)c5cccc(Cl)c5)C4)no3)c(=O)c21 [Example Compound 101, 1-((3-((1r,3r)-3-(3-chlorobenzoyl)cyclobutyl)-1,2,4-oxadiazol-5-yl)methyl)-7-methyl-1,7-dihydro-6H-purin-6-one] | 117 nM | 64 nM | 
8 | Cn1cnc2ncn(Cc3nc([C@@H]4[C@H]5C=C(c6cccc(C(F)F)c6)C[C@H]54)no3)c(=O)c21 [Example Compound 102, 1-((3-((1R,5R,6S)-3-(3-(difluoromethyl)phenyl)bicyclo[3.1.0]hex-2-en-6-yl)-1,2,4-oxadiazol-5-yl)methyl)-7-methyl-1,7-dihydro-6H-purin-6-one] | 49.5 nM | 37 nM | 
9 | Cn1cnc2ncn(Cc3nc([C@H]4[C@@H]5C=C(c6cccc(C(F)F)c6)C[C@@H]54)no3)c(=O)c21 [Example Compound 103, 1-((3-((1S,5S,6R)-3-(3-(difluoromethyl)phenyl)bicyclo[3.1.0]hex-2-en-6-yl)-1,2,4-oxadiazol-5-yl)methyl)-7-methyl-1,7-dihydro-6H-purin-6-one] | 31.9 nM | 26 nM | 
10 | Cc1noc2ncn(Cc3nc([C@H]4[C@@H]5CN(c6cc(Cl)ccn6)C[C@@H]54)no3)c(=O)c12 [Example Compound 104, 5-((3-((1R,5S,6r)-3-(4-chloropyridin-2-yl)-3-azabicyclo[3.1.0]hexan-6-yl)-1,2,4-oxadiazol-5-yl)methyl)-3-methylisoxazolo[5,4-d]pyrimidin-4(5H)-one] | 43 nM | 30 nM | 
11 | Cn1cnc2ncn(Cc3nc([C@H]4[C@@H]5CN(c6ccc(F)c(F)c6)C[C@@H]54)no3)c(=O)c21 [Example Compound 105, 1-((3-((1R,5S,6r)-3-(3,4-difluorophenyl)-3-azabicyclo[3.1.0]hexan-6-yl)-1,2,4-oxadiazol-5-yl)methyl)-7-methyl-1,7-dihydro-6H-purin-6-one] | 21.5 nM | 3.9 nM | 
12 | Cn1nnc2ncn(Cc3nc([C@@H]4CC[C@@H](c5ccc(F)cc5)C4)no3)c(=O)c21 [Example Compound 106, 6-((3-((1R,3R)-3-(4-fluorophenyl)cyclopentyl)-1,2,4-oxadiazol-5-yl)methyl)-1-methyl-1,6-dihydro-7H-[1,2,3]triazolo[4,5-d]pyrimidin-7-one] | 40.3 nM | 44 nM | 
13 | Cc1cc(C#N)nc2ncn(Cc3nc([C@H]4[C@@H]5CN(c6cc(Cl)ccn6)C[C@@H]54)no3)c(=O)c12 [Example Compound 107, 3-((3-((1R,5S,6r)-3-(4-chloropyridin-2-yl)-3-azabicyclo[3.1.0]hexan-6-yl)-1,2,4-oxadiazol-5-yl)methyl)-5-methyl-4-oxo-3,4-dihydropyrido[2,3-d]pyrimidine-7-carbonitrile] | 49 nM | 9.1 nM | 
14 | Cn1nnc2ncn(Cc3nc([C@H]4[C@@H]5C=C(c6ccccc6)C[C@@H]54)no3)c(=O)c21 [Example Compound 108, 1-methyl-6-((3-((1 S,5 S,6R)-3-phenylbicyclo[3.1.0]hex-2-en-6-yl)-1,2,4-oxadiazol-5-yl)methyl)-1,6-dihydro-7H-[1,2,3]triazolo[4,5-d]pyrimidin-7-one] | 6.12 nM | 3.1 nM | 
15 | Cn1nnc2ncn(Cc3nc([C@@H]4[C@H]5C=C(c6ccccc6)C[C@H]54)no3)c(=O)c21 [Example Compound 109, 1-methyl-6-((3-((1R,5R,6S)-3-phenylbicyclo[3.1.0]hex-2-en-6-yl)-1,2,4-oxadiazol-5-yl)methyl)-1,6-dihydro-7H-[1,2,3]triazolo[4,5-d]pyrimidin-7-one] | 10.4 nM | 4.1 nM | 
16 | Cn1cnc2ncn(Cc3nc([C@@H]4[C@H]5C=C(c6ccc(F)cn6)C[C@H]54)no3)c(=O)c21 [Example Compound 110, 1-((3-((1R,5R,6S)-3-(5-fluoropyridin-2-yl)bicyclo[3.1.0]hex-2-en-6-yl)-1,2,4-oxadiazol-5-yl)methyl)-7-methyl-1,7-dihydro-6H-purin-6-one] | 64 nM | 27 nM | 
17 | Cn1cnc2ncn(Cc3nc([C@H]4[C@@H]5C=C(c6ccc(F)cn6)C[C@@H]54)no3)c(=O)c21 [Example Compound 111, 1-((3-((1S,5S,6R)-3-(5-fluoropyridin-2-yl)bicyclo[3.1.0]hex-2-en-6-yl)-1,2,4-oxadiazol-5-yl)methyl)-7-methyl-1,7-dihydro-6H-purin-6-one] | 116 nM | 78 nM | 
18 | Cn1cnc2ncn(Cc3nc([C@H]4[C@@H]5C=C(c6ccc7scnc7c6)C[C@@H]54)no3)c(=O)c21 [Example Compound 112, 1-((3-((1S,5S,6R)-3-(benzo[d]thiazol-5-yl)bicyclo[3.1.0]hex-2-en-6-yl)-1,2,4-oxadiazol-5-yl)methyl)-7-methyl-1,7-dihydro-6H-purin-6-one] | 36 nM | 24 nM | 
19 | Cn1cnc2ncn(Cc3nc([C@@H]4[C@H]5C=C(c6ccc7scnc7c6)C[C@H]54)no3)c(=O)c21 [Example Compound 113, 1-((3-((1R,5R,6S)-3-(benzo[d]thiazol-5-yl)bicyclo[3.1.0]hex-2-en-6-yl)-1,2,4-oxadiazol-5-yl)methyl)-7-methyl-1,7-dihydro-6H-purin-6-one] | 36.2 nM | 34 nM | 
20 | Cn1cnc2ncn(Cc3nc([C@H]4[C@@H]5C=C(c6cccc(F)c6)C[C@@H]54)no3)c(=O)c21 [Example Compound 114, 1-((3-((1S,5S,6R)-3-(3-fluorophenyl)bicyclo[3.1.0]hex-2-en-6-yl)-1,2,4-oxadiazol-5-yl)methyl)-7-methyl-1,7-dihydro-6H-purin-6-one] | 6.4 nM | 1.7 nM | improved TRPA1 IC50 values
21 | Cn1cnc2ncn(Cc3nc([C@@H]4[C@H]5C=C(c6cccc(F)c6)C[C@H]54)no3)c(=O)c21 [Example Compound 115, 1-((3-((1R,5R,6S)-3-(3-fluorophenyl)bicyclo[3.1.0]hex-2-en-6-yl)-1,2,4-oxadiazol-5-yl)methyl)-7-methyl-1,7-dihydro-6H-purin-6-one] | 9.73 nM | 2.3 nM | improved TRPA1 IC50 values
22 | Cc1ncn2ncn(Cc3nc([C@H]4[C@@H]5CN(c6cc(Cl)ccn6)C[C@@H]54)no3)c(=O)c12 [Example Compound 116, 3-((3-((1R,5S,6r)-3-(4-chloropyridin-2-yl)-3-azabicyclo[3.1.0]hexan-6-yl)-1,2,4-oxadiazol-5-yl)methyl)-5-methylimidazo[5,1-f][1,2,4]triazin-4(3H)-one] | 61.1 nM | 50 nM | 
23 | Cc1cnn2ncn(Cc3nc([C@H]4[C@@H]5CN(c6cc(F)ccn6)C[C@@H]54)no3)c(=O)c12 [Example Compound 117, 3-((3-((1R,5S,6r)-3-(4-fluoropyridin-2-yl)-3-azabicyclo[3.1.0]hexan-6-yl)-1,2,4-oxadiazol-5-yl)methyl)-5-methylpyrazolo[5,1-f][1,2,4]triazin-4(3H)-one] | 19.2 nM | 7.5 nM | 
